Results from patent US20250176904A1, “PRE-DOSING METHOD OF ASSESSING DRUG BENEFITS IN PATIENTS” (priority 2022, published 2025).
Values joined by “and” are separate entries in the source; they are usually repeats but may differ in a detail not shown here. Equal values may be shown once. “Also recorded” adds a separate entry of the source.

What was measured:
Male Long Evans rats = experiment: Progressive ratio responding for food (lever press, break point, session duration); type: in vivo
Procedure: Animals and housing: Male Long Evans rats were used (source: Charles River Laboratories, St. Constant, Quebec). All study animals were singly housed in a vivarium under a 12 h light:dark cycle (lights on: 06:00 h-18:00 h). All behavioural testing was during the light phase. Rats were placed on a restricted diet regimen, where they were fed once a day with approximately 20 g of standard laboratory chow at the completion of testing procedures (16:00 h-18:00 h). For these animals, water was freely available except during testing. All animal use procedures were performed in accordance with the principles of the Canadian Council on Animal Care (CCAC).
Methods: A total of 72 rats were used in the psilocybin experiment. The basic test design involved training animals to lever press for a food reward (45 mg Bioserv pellets) under a progressive ratio (PR) schedule in which the number of responses required to achieve a pellet increases for successive reinforcers. The progressive ratio was derived from the equation ratio=[5×e^(0.2×reinforcer #)−5], and was as follows: […], etc.
Subjects were administered psilocybin (0.025, 0.05, 0.1 mg/kg) or vehicle control according to Latin square design, in which each animal received each treatment over repeated test sessions with 2-3 day intervals between each testing cycle. Subjects were also subgrouped into low responders (N=24) based on having the lowest average break point measure recorded over 7 days prior to testing and a separate analysis was conducted on this cohort.
Statistical analysis: Data are presented as means±SEM. Data from the progressive ratio task was analysed by one way (treatment) repeated measures ANOVA (Statistica Version 11, Statsoft Inc. [2012]). In the event of a significant main effect, post-hoc comparisons were carried out with Dunnett's test for comparison of drug treatment to vehicle control. Both study cohorts of “All” and “Low responders” were analysed separately. In all cases the accepted level of significance was P<0.05. Effect sizes for group mean differences were also calculated using partial eta squared (Statistica Version 11, Statsoft Inc. [2012]). In addition a correlational analysis (parametric: Pearson R; non-parametric: Spearman R) was conducted at each dose level to look at the relationship between baseline (vehicle) response and magnitude of change in break point and lever press following each psilocybin dose.

healthy volunteers = conditions: human, in vivo, po
[1] = all 72 rats, psilocybin 0.025, 0.05, 0.1 mg/kg SC vs vehicle, ANOVA main effect
[2] = low responder subgroup N=24, psilocybin 0.05-0.1 mg/kg relative to vehicle control

CN(C)CCc1c[nH]c2cccc(OP(=O)(O)O)c12 [Psilocybin, 4-phosphoryloxy-N,N-dimethyltryptamine]
number of lever press (Male Long Evans rats; [1]): no main effect of treatment | session duration (Male Long Evans rats; [1]): no main effect of treatment | break point (Male Long Evans rats; all 72 rats, psilocybin 0.025, 0.05, 0.1 mg/kg SC vs vehicle, post-hoc comparison): no treatment group was significantly different to vehicle | relationship between baseline responding and % change in break point or lever press (Male Long Evans rats; low responder subgroup N=24, 0.025 mg/kg SC): no such correlation; also recorded: no significant correlation | relationship between baseline responding and % change in break point or lever press (Male Long Evans rats; low responder subgroup N=24, 0.05 mg/kg SC, Pearson R and Spearman R): inverse correlation; also recorded: significant correlation | relationship between baseline responding and % change in break point or lever press (Male Long Evans rats; low responder subgroup N=24, 0.1 mg/kg SC, Pearson R and Spearman R): inverse correlation; also recorded: significant correlation | session duration (Male Long Evans rats; low responder subgroup N=24, 0.1 mg/kg, mean±SEM): 18.7 ± 2.5 min | session duration (treatment effect) (Male Long Evans rats; low responder subgroup N=24, psilocybin 0.025-0.1 mg/kg vs vehicle, ANOVA): no treatment effect | break point (Male Long Evans rats; [2]): increases | lever press (Male Long Evans rats; [2]): increases | RTI Median Five-Choice Reaction Time 2 Hr (healthy volunteers): 381 and 347 and 377 and 386.5 and 446 and 343 | RTI Median Five-Choice Reaction Time 4 Hr (healthy volunteers): 330 and 346 and 377 and 413 and 431 and 330.5
